In PubChem BioAssay (NCI):
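Growth conditions: 96-well plates. Treatment: test compound, 48 hours, 5 concentrations. Analysis: linear interpolation between bracketing concentrations; unreached endpoints set to highest concentration. The concentration for full growth arrest is given as TGI.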

Legend:
Test in all cases: growth of human tumour cells (NCI), 48 h
OVCAR-4 ovarian = tested on: OVCAR-4 ovarian
MCF7 breast = tested on: MCF7 breast
SR leukemia = tested on: SR leukemia
NCI/ADR-RES ovarian = tested on: NCI/ADR-RES ovarian
UACC-62 melanoma = tested on: UACC-62 melanoma
SK-MEL-2 melanoma = tested on: SK-MEL-2 melanoma
HOP-92 NSCLC = tested on: HOP-92 NSCLC
HCT-116 colon = tested on: HCT-116 colon
786-0 renal = tested on: 786-0 renal
HOP-62 NSCLC = tested on: HOP-62 NSCLC
CAKI-1 renal = tested on: CAKI-1 renal
CCRF-CEM leukemia = tested on: CCRF-CEM leukemia
M14 melanoma = tested on: M14 melanoma
MDA-N = tested on: MDA-N
OVCAR-3 ovarian = tested on: OVCAR-3 ovarian
SNB-19 CNS = tested on: SNB-19 CNS
SK-MEL-5 melanoma = tested on: SK-MEL-5 melanoma
COLO 205 colon = tested on: COLO 205 colon
MDA-MB-231 breast = tested on: MDA-MB-231 breast
SW-620 colon = tested on: SW-620 colon
NCI-H460 lung = tested on: NCI-H460 lung
UACC-257 melanoma = tested on: UACC-257 melanoma
A498 renal = tested on: A498 renal
SNB-75 CNS = tested on: SNB-75 CNS
EKVX NSCLC = tested on: EKVX NSCLC
LOX IMVI melanoma = tested on: LOX IMVI melanoma
TK-10 renal = tested on: TK-10 renal
NCI-H226 lung = tested on: NCI-H226 lung
NCI-H23 lung = tested on: NCI-H23 lung
PC-3 prostate = tested on: PC-3 prostate
K-562 leukemia = tested on: K-562 leukemia
OVCAR-5 ovarian = tested on: OVCAR-5 ovarian
U251 CNS = tested on: U251 CNS
HL-60(TB) leukemia = tested on: HL-60(TB) leukemia
IGROV1 ovarian = tested on: IGROV1 ovarian
A549 NSCLC = tested on: A549 NSCLC
RPMI-8226 leukemia = tested on: RPMI-8226 leukemia
RXF 393 renal = tested on: RXF 393 renal
SF-539 CNS = tested on: SF-539 CNS
UO-31 renal = tested on: UO-31 renal
MALME-3M melanoma = tested on: MALME-3M melanoma
DU-145 prostate = tested on: DU-145 prostate
SN12C renal = tested on: SN12C renal
SK-OV-3 ovarian = tested on: SK-OV-3 ovarian
HT29 colon = tested on: HT29 colon
SF-268 CNS = tested on: SF-268 CNS
MDA-MB-435 = tested on: MDA-MB-435
NCI-H522 lung = tested on: NCI-H522 lung
SF-295 CNS = tested on: SF-295 CNS
T-47D breast = tested on: T-47D breast
KM12 colon = tested on: KM12 colon
HS 578T breast = tested on: HS 578T breast
HCT-15 colon = tested on: HCT-15 colon
MOLT-4 leukemia = tested on: MOLT-4 leukemia
BT-549 breast = tested on: BT-549 breast
OVCAR-8 ovarian = tested on: OVCAR-8 ovarian
HCC-2998 colon = tested on: HCC-2998 colon
ACHN renal = tested on: ACHN renal
SK-MEL-28 melanoma = tested on: SK-MEL-28 melanoma

With Nc1ccccc1C#CC(=O)c1cccc(C(F)(F)F)c1 the TGI (OVCAR-4 ovarian) was 5.51 µM, the TGI (MCF7 breast) was 9.91 µM and the TGI (SR leukemia) was greater than 100 µM. The TGI (NCI/ADR-RES ovarian) was 47.3 µM, the TGI (UACC-62 melanoma) was 3.85 µM and the TGI (SK-MEL-2 melanoma) was 2.54 µM. For the same molecule, the TGI (HOP-92 NSCLC) was 4.84 µM, the TGI (HCT-116 colon) was greater than 100 µM and the TGI (786-0 renal) was 4.68 µM. The TGI (HOP-62 NSCLC) was 27.9 µM, the TGI (CAKI-1 renal) was 13.5 µM and the TGI (CCRF-CEM leukemia) was 4.42 µM. It also gave a TGI (M14 melanoma) of 5.1 µM, a TGI (MDA-N) of 10.6 µM and a TGI (OVCAR-3 ovarian) of 14.7 µM. The TGI (SNB-19 CNS) was 27.6 µM, the TGI (SK-MEL-5 melanoma) was 6.17 µM and the TGI (COLO 205 colon) was 3.87 µM. The TGI (MDA-MB-231 breast) was 4.97 µM, the TGI (SW-620 colon) was 5 µM and the TGI (NCI-H460 lung) was 47.6 µM. The TGI (UACC-257 melanoma) was 29.5 µM, the TGI (A498 renal) was 32.5 µM and the TGI (SNB-75 CNS) was 27.4 µM. The TGI (EKVX NSCLC) was 38 µM, the TGI (LOX IMVI melanoma) was 4.02 µM and the TGI (TK-10 renal) was 39.1 µM. It also gave a TGI (NCI-H226 lung) of 18 µM, a TGI (NCI-H23 lung) of 4.71 µM and a TGI (PC-3 prostate) of 12 µM. The TGI (K-562 leukemia) was greater than 100 µM, the TGI (OVCAR-5 ovarian) was 23.7 µM and the TGI (U251 CNS) was 3.95 µM. The TGI (HL-60(TB) leukemia) was 41.1 µM, the TGI (IGROV1 ovarian) was 1.99 µM and the TGI (A549 NSCLC) was 33.6 µM. It also gave a TGI (RPMI-8226 leukemia) of 5.4 µM, a TGI (RXF 393 renal) of 5.07 µM and a TGI (SF-539 CNS) of 10.9 µM. For the same molecule, the TGI (UO-31 renal) was 2.55 µM, the TGI (MALME-3M melanoma) was 22.1 µM and the TGI (DU-145 prostate) was 37.1 µM. It also gave a TGI (SN12C renal) of 4.81 µM, a TGI (SK-OV-3 ovarian) of 28.6 µM and a TGI (HT29 colon) of 19.2 µM. The TGI (SF-268 CNS) was 5.88 µM, the TGI (MDA-MB-435) was 6.65 µM and the TGI (NCI-H522 lung) was 2.36 µM. The TGI (SF-295 CNS) was 34.1 µM, the TGI (T-47D breast) was greater than 100 µM and the TGI (KM12 colon) was 82.1 µM. The TGI (HS 578T breast) was 6.47 µM.

For O=C(N=Nc1ccc(Cl)cc1Cl)NNc1ccc(Cl)cc1Cl, the TGI (OVCAR-4 ovarian) was 38 µM, the TGI (SR leukemia) was 78.3 µM and the TGI (UACC-62 melanoma) was 29 µM. It also gave a TGI (HCT-15 colon) of 46.8 µM, a TGI (SK-MEL-2 melanoma) of 27 µM and a TGI (MOLT-4 leukemia) of 50.5 µM. The TGI (HCT-116 colon) was 28.7 µM, the TGI (786-0 renal) was 32.6 µM and the TGI (HOP-62 NSCLC) was 18.6 µM. It also gave a TGI (CAKI-1 renal) of 52.9 µM, a TGI (CCRF-CEM leukemia) of 59.6 µM and a TGI (BT-549 breast) of 39.7 µM. The TGI (MDA-N) was 35.1 µM, the TGI (OVCAR-3 ovarian) was 33.6 µM and the TGI (SNB-19 CNS) was greater than 100 µM. The TGI (SK-MEL-5 melanoma) was 29.2 µM, the TGI (MDA-MB-231 breast) was 57.8 µM and the TGI (SW-620 colon) was 45.8 µM. For the same molecule, the TGI (NCI-H460 lung) was 33.4 µM, the TGI (UACC-257 melanoma) was 43.1 µM and the TGI (A498 renal) was 33.1 µM. It also gave a TGI (SNB-75 CNS) greater than 100 µM, a TGI (LOX IMVI melanoma) of 30.4 µM and a TGI (TK-10 renal) of 55.5 µM. It also gave a TGI (NCI-H226 lung) of 48.2 µM, a TGI (NCI-H23 lung) of 53 µM and a TGI (PC-3 prostate) of 34.8 µM. The TGI (K-562 leukemia) was 72.6 µM, the TGI (OVCAR-5 ovarian) was 44 µM and the TGI (U251 CNS) was 36.2 µM. The TGI (HL-60(TB) leukemia) was 49.8 µM, the TGI (OVCAR-8 ovarian) was 37.6 µM and the TGI (IGROV1 ovarian) was 61.4 µM. For the same molecule, the TGI (A549 NSCLC) was 46.7 µM, the TGI (HCC-2998 colon) was 23.9 µM and the TGI (RPMI-8226 leukemia) was 61.9 µM. It also gave a TGI (UO-31 renal) of 37.5 µM, a TGI (ACHN renal) of 42.5 µM and a TGI (MALME-3M melanoma) of 36.6 µM. It also gave a TGI (DU-145 prostate) of 33.3 µM, a TGI (SN12C renal) of 37.4 µM and a TGI (HT29 colon) of 75.3 µM. For the same molecule, the TGI (SF-268 CNS) was 97.5 µM, the TGI (MDA-MB-435) was 51.3 µM and the TGI (NCI-H522 lung) was 41.9 µM. The TGI (SK-MEL-28 melanoma) was 53.9 µM and the TGI (T-47D breast) was 77.3 µM.
